Tested on: Human giant cell lung carcinoma cells Lu65
Assay: Biological distribution of biotinated αSQAP in tumor of tumor-bearing nude mice (Alexa 488 avidin staining of tumor slices)
Assay type: in vivo, KSN nude mice
Conditions: tail vein, one hour after administration, FIG. 2
Protocol: Human giant cell lung carcinoma cells Lu65 were transplanted into six-week-old male KSN nude mice in a number of 1×10^6 for each of the mice, and the mice were bred for 14 days to form a tumor mass of about 100-200 mm^3 volume in each of the mice.
Thereafter, three mice were assigned to each of the following four groups (1) to (4):
(1) a control group wherein physiological saline was administered,
(2) a high dose group wherein biotinated αSQAP was administered in a dose of 50 mg/kg,
(3) a middle dose group wherein biotinated αSQAP was administered in a dose of 5 mg/kg, and […]
The slice was observed by a fluorescence microscope, and the slice was made into an image. Data on the image were input to a computer, and then positive signals of the image were quantified according to image analysis software.
Specifically, binary image processing based on Photoshop was performed to estimate a tumor region emitting fluorescence through the labeling material Alexa 488 in the slice. Thereafter, a portion (fraction) containing tumor tissues was selected from the visual field, and the number of pixels of the Alexa 488 positive region (black region) and the entire region were counted and the ratio of the positive region was calculated according to the formula: […]

## O=C(CCCC[C@@H]1SC[C@@H]2NC(=O)N[C@@H]21)NCCC(=O)OCCCO[C@H]1O[C@H](CS(=O)(=O)[O-])[C@@H](O)[C@H](O)[C@H]1O.O=C(CCCC[C@@H]1SC[C@@H]2NC(=O)N[C@@H]21)NCCC(=O)OCCCO[C@H]1O[C@H](CS(=O)(=O)[O-])[C@@H](O)[C@H](O)[C@H]1O.[Ca+2] [biotinated αSQAP, 3-O-(6-sulfo-α-D-quinovopyranosyl)-1-O-(biotinyl-β-alanyl)-propane-1,3-diol calcium salt]
50 mg/kg
  amount in tumor: large
High dose group 50 mg/kg
  staining of tumor tissues (Alexa 488 positive region): intensely dyed
